Experiments:
Type in all cases: biochemical
Human Factor XIIa = Human Factor XIIa (Homo sapiens (Human), UniProt P00748); assay: Determination of FXIIa inhibition (fluorogenic substrate H-DPro-Phe-Arg-AFC, IC50 assay); settings: substrate H-DPro-Phe-Arg-AFC at Km, 25° C.; class scale A-G
In short: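 IC50 derived from % remaining activity, taken as the linear fluorescence rate over a 5 min read at 25° C. Substrate H-DPro-Phe-Arg-AFC was used at its Km (Michaelis-Menten) with human FXIIa and serial compound dilutions, 25° C.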

Plasma Kallikrein = Plasma Kallikrein (Homo sapiens (Human), UniProt P03952); assay: Determination of related protease inhibition: Plasma Kallikrein (fluorogenic substrate at Km); settings: 25° C., read-out: IC50 (human PKal)
Plasma Kallikrein, sequence (P03952 391-638): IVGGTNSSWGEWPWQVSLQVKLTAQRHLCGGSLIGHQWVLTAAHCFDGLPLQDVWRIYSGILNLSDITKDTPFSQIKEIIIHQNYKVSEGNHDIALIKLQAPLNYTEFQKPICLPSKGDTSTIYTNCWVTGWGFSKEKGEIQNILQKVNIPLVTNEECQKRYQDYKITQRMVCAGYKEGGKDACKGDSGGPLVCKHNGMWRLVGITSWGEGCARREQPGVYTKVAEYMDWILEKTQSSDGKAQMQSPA
Plasma Kallikrein, sequence (P03952 20-390 partner): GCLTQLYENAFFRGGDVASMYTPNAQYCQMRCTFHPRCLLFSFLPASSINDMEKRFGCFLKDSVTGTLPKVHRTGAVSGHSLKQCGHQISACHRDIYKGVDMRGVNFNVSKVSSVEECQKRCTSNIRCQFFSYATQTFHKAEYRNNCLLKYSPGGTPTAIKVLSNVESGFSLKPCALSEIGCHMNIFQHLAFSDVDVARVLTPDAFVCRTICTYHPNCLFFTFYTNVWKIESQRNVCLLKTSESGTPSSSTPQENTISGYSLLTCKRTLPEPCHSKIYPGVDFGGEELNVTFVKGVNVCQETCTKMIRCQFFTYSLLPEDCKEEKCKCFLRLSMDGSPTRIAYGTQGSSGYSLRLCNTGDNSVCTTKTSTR
In short: (§1)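 Fluorescence release from a Km-level fluorogenic substrate, read for 5 min at 25 °C, gave the linear rate per minute for each inhibitor concentration. Rates were converted to % of uninhibited human enzyme activity; IC50 = inhibitor concentration producing 50% inhibition.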

KLK1 = KLK1 (Homo sapiens (Human), UniProt P06870); assay: Determination of related protease inhibition: KLK1 (fluorogenic substrate at Km); settings: 25° C.
KLK1, sequence (P06870 25-262): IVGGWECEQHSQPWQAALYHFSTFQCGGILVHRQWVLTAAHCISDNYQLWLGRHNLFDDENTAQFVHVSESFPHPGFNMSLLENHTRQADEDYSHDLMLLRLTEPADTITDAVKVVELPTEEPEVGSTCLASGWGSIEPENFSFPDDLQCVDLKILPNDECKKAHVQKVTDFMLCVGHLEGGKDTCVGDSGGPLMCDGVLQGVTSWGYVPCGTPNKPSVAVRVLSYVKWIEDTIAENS
In short: as §1

FXa = FXa (Homo sapiens (Human), UniProt P00742); assay: Determination of related protease inhibition: FXa (fluorogenic substrate at Km); settings: 25° C.
FXa, sequence (P00742 235-488): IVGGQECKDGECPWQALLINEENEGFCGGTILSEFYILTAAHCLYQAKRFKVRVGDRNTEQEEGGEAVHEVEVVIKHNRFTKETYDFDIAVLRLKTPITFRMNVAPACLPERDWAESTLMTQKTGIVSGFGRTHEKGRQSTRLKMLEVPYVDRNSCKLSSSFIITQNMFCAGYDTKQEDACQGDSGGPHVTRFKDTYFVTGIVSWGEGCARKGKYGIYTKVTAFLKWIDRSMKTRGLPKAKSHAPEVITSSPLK
FXa, sequence (P00742 41-179 partner): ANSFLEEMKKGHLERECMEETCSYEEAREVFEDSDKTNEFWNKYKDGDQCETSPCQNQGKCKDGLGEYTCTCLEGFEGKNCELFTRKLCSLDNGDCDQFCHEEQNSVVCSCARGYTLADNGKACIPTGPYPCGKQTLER
Experimental: (§2) Determination of Related Protease Inhibition
(§3) In vitro inhibition of related proteases was determined using an ([…] assay based on standard literature methods (see e.g. Shori et al., Biochem. Pharmacol., 1992, 43, 1209; Bouckaert et al., European Journal of Medicinal Chemistry 110 (2016) 181). Human serine protease enzymes Plasma Kallikrein, KLK1, FXa, Plasmin, Thrombin and Trypsin were assayed for enzymatic activity using an appropriate fluorogenic substrate at Km concentration, FXIa at fixed substrate concentration of 100 μM, and various concentrations of the test compound. Protease activity was measured by monitoring the accumulation of liberated fluorescence from the substrate over […]. The linear rate of fluorescence increase per minute was expressed as percentage (%) activity. IC50 values were calculated as the concentration of inhibitor giving 50% inhibition of the uninhibited enzyme activity (100%).

Thrombin = Thrombin (Homo sapiens (Human), UniProt P00734); assay: Determination of related protease inhibition: Thrombin (fluorogenic substrate at Km); settings: 25° C.
Experimental: as §2, §3

Human Factor XIIa, sequence (P00748 373-615): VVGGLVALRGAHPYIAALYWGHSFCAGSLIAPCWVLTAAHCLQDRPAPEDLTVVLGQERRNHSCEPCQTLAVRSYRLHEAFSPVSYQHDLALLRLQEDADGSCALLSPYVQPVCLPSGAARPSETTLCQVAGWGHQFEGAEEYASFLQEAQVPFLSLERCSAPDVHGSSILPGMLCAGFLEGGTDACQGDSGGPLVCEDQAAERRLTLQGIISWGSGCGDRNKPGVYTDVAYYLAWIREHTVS

| Structure (SMILES) | IC50 (Human Factor XIIa) [µM] | IC50 (Plasma Kallikrein) [µM] | IC50 (KLK1) [µM] | IC50 (FXa) [µM] | IC50 (Thrombin) [µM] |
| --- | --- | --- | --- | --- | --- |
| Nc1nccc2c(NCc3ccc(CCN4CCOCC4)cc3F)cccc12 [Example 2183, N5-[[2-fluoro-4-(2-morpholinoethyl)phenyl]methyl]isoquinoline-1,5-diamine] | 0.3 to 1 | > 40 | 10 to 40 | > 40 | > 40 |
| CN1CCN(CCc2ccc(CNc3ccc4c(N)ncc(Cl)c4c3)c(F)c2)CC1 [Example 2184, 4-Chloro-N6-[[2-fluoro-4-[2-(4-methylpiperazin-1-yl)ethyl]phenyl]methyl]isoquinoline-1,6-diamine] | 3 to 10 | > 40 | 3 to 10 | > 40 | > 40 |
| CN1CC2(CC(OCc3ccc(CNc4cccc5c(N)nccc45)c(F)c3)C2)C1 [Example 2206, 5-N-[[2-fluoro-4-[(2-methyl-2-azaspiro[3.3]heptan-6-yl)oxymethyl]phenyl]methyl]isoquinoline-1,5-diamine] | 3 to 10 | 10 to 40 | 10 to 40 | > 40 | > 40 |
| Cn1ccnc1COCc1ccc(CNc2cccc3c(N)nccc23)c(F)c1 [Example 2207, N5-(2-fluoro-4-(((1-methyl-1H-imidazol-2-yl)methoxy)methyl)benzyl)isoquinoline-1,5-diamine] | 1 to 3 | 3 to 10 | 10 to 40 | 10 to 40 | 10 to 40 |
| Cn1ccnc1CCOCc1ccc(CNc2cccc3c(N)nccc23)c(F)c1 [Example 2208, N5-[[2-fluoro-4-[2-(1-methylimidazol-2-yl)ethoxymethyl]phenyl]methyl]isoquinoline-1,5-diamine] | 1 to 3 | > 40 | 10 to 40 | 10 to 40 | 10 to 40 |
| CN1CC(OCc2ccc(CNc3cccc4c(N)nccc34)c(F)c2)CCC1=O (stereo not drawn) [Example 2209, 5-[[4-[[(1-amino-5-isoquinolyl)amino]methyl]-3-fluoro-phenyl]methoxy]-1-methyl-piperidin-2-one] | 1 to 3 | > 40 | 10 to 40 | > 40 | > 40 |
| Cn1ccnc1CC(=O)NCc1ccc(CNc2cccc3c(N)nccc23)c(F)c1 [Example 2211, N-(4-(((1-aminoisoquinolin-5-yl)amino)methyl)-3-fluorobenzyl)-2-(1-methyl-1H-imidazol-2-yl)acetamide] | 10 to 40 | > 40 | 10 to 40 | > 40 | > 40 |
| CC(C)N1C[C@H]2C[C@@H]1CN2CCc1ccc(CNc2ccc3c(N)ncc(Cl)c3c2)c(F)c1 [Example 2214, 4-chloro-6-N-[(2-fluoro-4-{2-[(1R,4R)-5-isopropyl-2,5-diazabicyclo[2.2.1]heptan-2-yl]ethyl}phenyl)methyl]isoquinoline-1,6-diamine] | 0.3 to 1 | 10 to 40 | 3 to 10 | > 40 | > 40 |
| Nc1ncc(Cl)c2cc(NCc3ccc(CCN4CCOCC4)cc3F)ccc12 [Example 2215, 4-chloro-6-N-({2-fluoro-4-[2-(morpholin-4-yl)ethyl]phenyl}methyl)isoquinoline-1,6-diamine] | 10 to 40 | > 40 | 10 to 40 | > 40 | > 40 |
| CN1[C@@H]2COC[C@H]1CC(OCc1ccc(CNc3cccc4c(N)nccc34)c(F)c1)C2 (stereo partly drawn) [Example 2254, N5-(2-fluoro-4-((((1R,5S)-9-methyl-3-oxa-9-azabicyclo[3.3.1]nonan-7-yl)oxy)methyl)benzyl)isoquinoline-1,5-diamine] | 0.1 to 0.3 | > 40 | 10 to 40 | 10 to 40 | > 40 |
| CN1CC2C(COc3cc(CNc4ccc5c(N)nccc5c4)ccn3)C2C1 (stereo not drawn) [Example 4269, N6-((2-((3-methyl-3-azabicyclo[3.1.0]hexan-6-yl)methoxy)pyridin-4-yl)methyl)isoquinoline-1,6-diamine] | 0.1 to 0.3 | 3 to 10 | 0.3 to 1 | 0.01 to 0.1 | 0.3 to 1 |
| CN1CC2CCC(C1)C2COc1cc(CNc2ccc3c(N)nccc3c2)ccn1 (stereo not drawn) [Example 4270, N6-((2-((3-methyl-3-azabicyclo[3.2.1]octan-8-yl)methoxy)pyridin-4-yl)methyl)isoquinoline-1,6-diamine] | 0.01 to 0.1 | 3 to 10 | 0.3 to 1 | 0.01 to 0.1 | 1 to 3 |
| CN1CCC(COc2cc(CNc3ccnc4c(N)nccc34)ccn2)CC1 [Example 4272, 4-N-[[2-[(1-methyl-4-piperidyl)methoxy]-4-pyridyl]methyl]-1,7-naphthyridine-4,8-diamine] | 3 to 10 | > 40 | > 40 | > 40 | > 40 |
| CN1CCC(COc2cc(CNc3nccc4c(N)ccnc34)ccn2)CC1 [Example 4273, N8-((2-((1-methylpiperidin-4-yl)methoxy)pyridin-4-yl)methyl)-1,7-naphthyridine-4,8-diamine] | 3 to 10 | > 40 | 10 to 40 | 3 to 10 | > 40 |
| CC(=O)N1CC2CC1CC2COc1cc(CNc2cccc3c(N)nccc23)ccn1 (stereo not drawn) [Example 4274, 1-(5-(((4-(((1-Aminoisoquinolin-5-yl)amino)methyl)pyridin-2-yl)oxy)methyl)-2-azabicyclo[2.2.1]heptan-2-yl)ethan-1-one] | 1 to 3 | > 40 | 3 to 10 | 1 to 3 | 10 to 40 |
| CC(=O)N1CC2CC1CC2COc1cc(CNc2ccc3c(N)nccc3c2)ccn1 (stereo not drawn) [Example 4275, 1-(5-(((4-(((1-aminoisoquinolin-6-yl)amino)methyl)pyridin-2-yl)oxy)methyl)-2-azabicyclo[2.2.1]heptan-2-yl)ethan-1-one] | 1 to 3 | 10 to 40 | 1 to 3 | 0.3 to 1 | 0.3 to 1 |
| CN1CC2CC1CC2COc1cc(CNc2cccc3c(N)nccc23)ccn1 (stereo not drawn) [Example 4276, 5-N-{[2-({2-methyl-2-azabicyclo[2.2.1]heptan-5-yl}methoxy)pyridin-4-yl]methyl}isoquinoline-1,5-diamine] | 0.3 to 1 | > 40 | 3 to 10 | 3 to 10 | > 40 |
| CN1CC2CC1CC2COc1cc(CNc2ccc3c(N)nccc3c2)ccn1 (stereo not drawn) [Example 4277, N6-((2-((2-methyl-2-azabicyclo[2.2.1]heptan-5-yl)methoxy)pyridin-4-yl)methyl)isoquinoline-1,6-diamine] | 0.1 to 0.3 | 3 to 10 | 1 to 3 | 0.3 to 1 | 1 to 3 |
| CN1CC2CCC(C1)C2COc1cc(CNc2cccc3c(N)nccc23)ccn1 (stereo not drawn) [Example 4278, 5-N-[[2-[(3-methyl-3-azabicyclo[3.2.1]octan-8-yl)methoxy]-4-pyridyl]methyl]isoquinoline-1,5-diamine] | 0.1 to 0.3 | > 40 | 3 to 10 | 1 to 3 | > 40 |
| CN1C[C@@H](COc2cc(CNc3cccc4c(N)nccc34)ccn2)OC1=O [Example 4279, (5S)-5-{[(4-{[(1-aminoisoquinolin-5-yl)amino]methyl}pyridin-2-yl)oxy]methyl}-3-methyl-1,3-oxazolidin-2-one] | 3 to 10 | > 40 | 10 to 40 | > 40 | > 40 |
| CN1C[C@H](COc2cc(CNc3cccc4c(N)nccc34)ccn2)OC1=O [Example 4280, (5R)-5-{[(4-{[(1-aminoisoquinolin-5-yl)amino]methyl}pyridin-2-yl)oxy]methyl}-3-methyl-1,3-oxazolidin-2-one] | 10 to 40 | > 40 | 10 to 40 | > 40 | > 40 |
| CN1CCC(COc2cc(CNc3cccc4c(N)nccc34)cc(C(F)(F)F)n2)CC1 [Example 4281, 5-N-[[2-[(1-methyl-4-piperidyl)methoxy]-6-(trifluoromethyl)-4-pyridyl]methyl]isoquinoline-1,5-diamine] | 0.3 to 1 | > 40 | 3 to 10 | > 40 | > 40 |
| Cn1ccnc1CCOc1cc(CNc2cccc3c(N)nccc23)ccn1 [Example 4282, 5-N-({2-[2-(1-methylimidazol-2-yl)ethoxy]pyridin-4-yl}methyl)isoquinoline-1,5-diamine] | 1 to 3 | > 40 | 3 to 10 | 10 to 40 | > 40 |
| Cn1ccnc1CCOc1cc(CNc2ccc3c(N)nccc3c2)ccn1 [Example 4283, 6-N-({2-[2-(1-methylimidazol-2-yl)ethoxy]pyridin-4-yl}methyl)isoquinoline-1,6-diamine] | 1 to 3 | 3 to 10 | 0.3 to 1 | 3 to 10 | 1 to 3 |
